We go through 1 substance from patent publication EP0126817A1, “Suppressing of graft rejection in organ transplantation” (SHANKSVILLE CORPORATION N.V., priority 1983, dated 1984).

Common to all, as to assay type: cell-based
Experiment [1] relates to cytotoxic T lymphoblasts. Description: Chromium release test: inhibition of tumor cell killing by cytotoxic T cells activated by interleukin 2. The following applies: HeLa tumor cells labelled with radioactive chromium, 2 micrograms per ml of culture medium. On the procedure: The following test is conducted to determine the inhibition of tumor cell killing capability of cytotoxic T cells activated by interleukin 2. Tumor cells from HeLa strain are labelled with radioactive chromium. The cells are washed and divided into two portions comprising the same cell number. Both portions are coincubated with cytotoxic T lymphoblasts for 18 hours. The culture medium contains IL-2. To one of the portions, at the beginning of the cocultivation, desialo GM1 is added'in concentration of 2 micrograms per ml of culture medium. The culture medium is decanted and the cells are pelleted in a centrifuge.

Experiment [2] has as its system Peripheral blood lymphocytes. Description: T lymphocyte blast transformation in IL-2 containing culture medium pretreated with the ganglioside and dialysed. Conditions: IL-2 medium RPMI 1640 treated with 5 micrograms per ml at 37°C for 30 minutes, dialysed 24 hours at 4°C; cells incubated 7 days. How it is done: This Example illustrates that asialo GM1 reacts with a soluble mediator for T lymphocyte blastogenesis inhibiting cytotoxic T cell formation. Peripheral blood lymphocytes are isolated by a density gradient centrifugation on ficoll hypaque and incubated 24 hours in the absence of serum proteins. Interleukin 2 containing tissue culture medium RPMI 1640 is treated with asialo GM1 in a concentration of 5 micrograms per ml of culture medium. The incubation with asialo GM1 is performed at 37°C for 30 minutes. Thereafter,the treated culture medium is dialysed against RPMI 1640 without supplements for 24 hours at a temperature of 4°C. The cells are incubated in the dialysed (and thus containing no free asialo GM1) culture medium for 7 days. For dialysis, the critical micellar concentration (CMC) of the ganglioside has to be regarded. If it is exceeded, dialysis will be impossible. CMC values for each ganglioside have been established, and are readily available.

Experiment [3] deals with T cell blasts. Description: In vitro T cell culture systems containing IL-2 (general finding). An excerpt: This observation therefore leads to an in vivo procedure for modification of the cell mediated immunological graft rejection mechanism by blocking the formation of cytotoxic T cells at the level of the T effector cells and without destroying macrophage cells. Accordingly, the procedure of the present invention is highly advantageous as compared to presently available techniques for transplant protection, particularly by the use of immunosuppressive drugs. […] Therefore, such drugs will subject the patient to increased risk of infectious diseases. […] At the time of the graft transplantation therefore, the consequence of IL-2 and T cell blasts will allow the latter to proliferate until the IL-2 is consumed. This process generally requires several days. In contrast, the immunosuppressive blocking agents of this invention require less than 24 hours to effectively terminate cytotoxic T cell proliferation and to kill off any existing cytotoxic T cells.

Take “Gal(beta 1-3)GalNac(beta 1-4)Glc(beta 1-1)Cer [asialo GM1]”: in experiment [1] (coincubated with cytotoxic T lymphoblasts for 18 hours, IL-2 medium), the “% of Cr released, Target and T cell” value is reported as 5.3%. Also, the “% of Cr released, Target and control” value in experiment [1] (control in place of T cells, 18 hours) is listed as 3.8%. Also, the “blast transformation of T cells” value in experiment [2] was “no blast transformation of T cells is observed”. Moreover, in experiment [3], the “proliferation of T cell blasts in growing T cell lines” value was “prevents proliferation of T cell blasts”.
